Experimental data published in patent publication US8247552B2, “Analogs of dehydrophenylahistins and their therapeutic use” (Nereus Pharmaceuticals, Inc., priority 2002, dated 2012).
In brackets after ≈: the same amount, converted by molar mass. Read-outs that look alike come from different tables or passages of the source. Each block holds one compound with its values, some of them ahead of it.

Experiments:
[1] = system: Trichophyton rubrum; assay: Antifungal susceptibility testing (NCCLS M38-A), MIC/MFC; assay type: cell-based; settings: for antifungal potency compared with griseofulvin: dermatophyte isolates
Method: (§1) Specifically, disclosed compounds were evaluated alongside commercially available microtubulin inhibitors as well as recognized antifungal agents.
(§2) Microorganisms against which these compounds were tested included: Candida albicans, Candida glabrata, Aspergillus fumigatus, Trichophyton rubrum, Trichophyton mentagrophytes, Epidermophyton floccosum. With the exception of Candida glabrata (one isolate), two isolates of each species were tested.
(§3) The minimum lethal concentration (MLC) was determined by plating […] from the MIC concentration and each concentration above the MIC. […] When a MIC was obtained, a minimum fungicidal concentration (MFC) was determined to assess the fungistatic/fungicidal nature of the compound.

[2] = system: Trichophyton mentagrophytes; assay: as above; assay type: cell-based
Method: Specifically, disclosed compounds were evaluated alongside commercially available microtubulin inhibitors as well as recognized antifungal agents. […].
as §2
Drug concentrations were 0.03-16 μg/ml for the investigational compounds, 0.015-8 μg/ml for itraconazole and griseofulvin.
as §3, with “compound. […] The compound is scored as fungistatic if the cells are able to resume growth and fungicidal if no regrowth is possible because the compound had killed the organisms.” for “compound.”

[3] = system: MCF7 cells (GFP-alpha-tubulin); assay: Microtubule dynamic instability in living MCF7 cells (time-lapse microscopy); assay type: cell-based, human
[4] = system: HuVEC cells; assay: Microtubule (tubulin) depolymerization, α-tubulin staining; settings: 2 μM, thirty minutes exposure
[5] = system: HT-29 human colon cells; assay: Tumor cytotoxicity / cell growth inhibition assay, resazurin fluorescence, 48 h; assay type: cell-based; settings: for EC50: Homo sapiens
[6] = system: MES-SA/Dx5 (Taxol resistant) human uterine sarcoma; assay: Cytotoxicity / growth inhibition in multidrug resistant uterine sarcoma cells; assay type: cell-based
Method: 1) Human Uterine Sarcoma Tumor Cell Line Pair: MES-SA (Taxol Sensitive) and MES-SA/Dx5 (Taxol Resistant).
HL-60 and HL-60/MX2 cells were both seeded at 5×10^4 cells/well in 90 μl complete media into 96 well plates on the day of compound addition. […] Ten μl volumes of the 10× serial dilutions were added to the test wells in triplicate and the plates returned to the incubator for 48 hours.
Resazurin dye in medium without cells was used to determine the background, which was subtracted from the data for all experimental wells.
The multidrug resistant MES-SA/Dx5 tumor cell line was derived from the human uterine sarcoma MES-SA tumor cell line and expresses elevated P-Glycoprotein (P-gp), an ATP dependent efflux pump. […] Paclitaxel, a known substrate of the P-gp pump was included as a control.

[7] = system: Candida albicans; assay: Antifungal susceptibility testing (NCCLS M38-A), MIC/MFC; assay type: cell-based; settings: Table 23
Method: as §1, §2, §3

[8] = system: Candida glabrata; assay: as above; assay type: cell-based; settings: Table 23
Method: as §1, §2, §3

[9] = system: MCF-7 human breast tumor; assay: MCF-7 Human Breast Tumor Xenograft Model; assay type: in vivo, mice; settings: combination with taxotere
Method: Animals used were (exceptions are indicated for individual studies): female nude mice (nu/nu) between 5 and 6 weeks of age (˜20 g, Harlan); group size was 9-10 mice per group unless otherwise indicated.
Female nude mice (˜20 g) were implanted s.c. with 21-day release estrogen (0.25 mg) pellets 24 hours prior to the s.c. implantation with MCF-7 tumor fragments (harvested from s.c. tumors in nude mice hosts). The study then proceeded as described for the HT-29 model, using taxotere as the standard chemotherapy agent.
In this model unless otherwise noted for the individual study, the novel compounds were injected via the intraperitoneal route daily on Days 1-5, inclusive (qdx5); taxotere was administered intravenously on Days 1, 3 and 5 (qodx3).
The doses of the compounds were administered on Days 1, 2, 3, 4, and 7; Taxotere was administered on Days 1, 3 and 7.

[10] = system: human hepatic P450s
[11] = system: Jurkat cells (human T cell leukemia line); assay: DNA fragmentation (DNA laddering) by gel electrophoresis; assay type: cell-based
From the text: A late stage characteristic of apoptosis is internucleosomal DNA cleavage that results in a distinctive ladder pattern that can be visualized by gel electrophoresis.

[12] = Table 28, 25% of the maximal mitotic block
[13] = Table 29, 50% of the maximal mitotic block

Compound: C=CC(C)(C)c1[nH]cnc1/C=C1\NC(=O)[C@H](Cc2ccccc2)NC1=O [(−)-Phenylahistin]
- potency versus T. rubrum [1]: significantly less potent than the other compounds
- potency versus sensitive T. mentagrophytes isolate [2]: weaker but more comparable to the others

Compound: COc1ccc(/C=C\c2cc(OC)c(OC)c(OC)c2)cc1O [CA4, Combretastatin A4]
- % time spent Attenuation [3, 12]: 39.50%
- % time spent Growth [3, 12]: 35.31%
- % time spent Shortening [3, 12]: 25.19%
- Freq. of (min-1) Catastrophe [3, 12]: 1.52 min⁻¹
- Freq. of (min-1) Rescue [3, 12]: 1.90 min⁻¹
- Mean duration (min) Attenuation [3, 12]: 0.45 min
- Mean duration (min) Growth [3, 12]: 0.27 min
- Mean duration (min) Shortening [3, 12]: 0.21 min
- Mean rates (μm/min) Shortening [3, 12]: 40.21 μm/min
- Mean rates (μm/min) Growth ([3]; Table 28, concentration effecting 25% of the maximal mitotic block in MCF7 cells): 10.59 μm/min
- Dyn. (μm/min) ([3]; Table 28, dynamicity, 25% of the maximal mitotic block): 13.87 μm/min
- % time spent Attenuation [3, 13]: 36.23%
- % time spent Growth [3, 13]: 43.64%
- % time spent Shortening [3, 13]: 20.13%
- Dynamicity (μm/min) [3, 13]: 10.91 μm/min
- Freq. of (min-1) Catastrophe [3, 13]: 1.09 min⁻¹
- Freq. of (min-1) Rescue [3, 13]: 2.79 min⁻¹
- Mean duration (min) Attenuation [3, 13]: 0.55 min
- Mean duration (min) Growth [3, 13]: 0.33 min
- Mean duration (min) Shortening [3, 13]: 0.22 min
- Mean rates (μm/min) Shortening [3, 13]: 29.88 μm/min
- Mean rates (μm/min) Growth ([3]; Table 29, concentration effecting 50% of the maximal mitotic block in MCF7 cells): 11.21 μm/min
- effect on MT dynamic instability ([3]; concentrations effecting 25% or 50% of maximal mitotic block): did not have a measurable effect on MT dynamic instability

Compound: COc1cc2c(c(OC)c1OC)-c1ccc(OC)c(=O)cc1[C@@H](NC(C)=O)CC2 [Colchicine]
- microtubule depolymerization in HuVEC cells [4]: induced microtubule depolymerization

Compound: COc1cc(/C=c2\[nH]c(=O)/c(=C/c3nc[nH]c3C(C)(C)C)[nH]c2=O)cc(OC)c1OC [KPU-11, tBu-ΔPLH-3,4,5-triOMe]
- cytotoxic activity against HT-29 cells [5]: also showed activity
- antifungal potency compared with griseofulvin [1]: equivalent in potency or in some cases more potent than griseofulvin

Compound: COc1cc(/C=c2\[nH]c(=O)/c(=C/c3nc[nH]c3C(C)(C)C)[nH]c2=O)cc(OC)c1 [KPU-16, tBu-ΔPLH-3,5-diOMe]
- cytotoxic activity against HT-29 cells [5]: showed high activity

Compound: COc1ccc(/C=c2\[nH]c(=O)/c(=C/c3nc[nH]c3C(C)(C)C)[nH]c2=O)c(OC)c1OC [KPU-17, tBu-ΔPLH-2,3,4-TriOMe]
- cytotoxic activity against HT-29 cells [5]: also showed activity
- antifungal potency compared with griseofulvin [1]: equivalent in potency or in some cases more potent than griseofulvin

Compound: Cc1ccsc1/C=c1\[nH]c(=O)/c(=C/c2nc[nH]c2C(C)(C)C)[nH]c1=O [KPU-29, tBu-ΔPLH-3-Me-2-thienyl]
- cytotoxic activity against HT-29 cells [5]: exhibited activity

Compound: COc1cc(OC)c(/C=c2\[nH]c(=O)/c(=C/c3nc[nH]c3C(C)(C)C)[nH]c2=O)c(OC)c1 [KPU-45, tBu-ΔPLH-2,4,6-TriOMe]
- cytotoxic activity against HT-29 cells [5]: also showed activity

Compound: CC(C)(C)c1[nH]cnc1/C=c1\[nH]c(=O)/c(=C/c2cccc(OC(F)(F)F)c2)[nH]c1=O [KPU-80, TBu- ΔPLH—m-OCF3]
- activity compared with tBu-dehydroPLH [5]: higher activity than tBu-dehydroPLH

Compound: COc1ccc(F)c(/C=c2\[nH]c(=O)/c(=C/c3nc[nH]c3C(C)(C)C)[nH]c2=O)c1 [KPU-81, TBu-ΔPLH-2-F-5-OMe]
- activity compared with tBu-dehydroPLH [5]: higher activity than tBu-dehydroPLH

Compound: CC(=O)O[C@H]1C(=O)[C@@]2(C)[C@H]([C@H](OC(=O)c3ccccc3)[C@]3(O)C[C@H](OC(=O)[C@H](O)[C@@H](NC(=O)c4ccccc4)c4ccccc4)C(C)=C1C3(C)C)[C@]1(OC(C)=O)CO[C@@H]1C[C@@H]2O [Paclitaxel]
- times less active against resistant MES-SA/Dx5 cells ([6]; versus MES-SA, Example 11): ~400 times

Compound: C[C@@H]1[C@H](O)[C@@H](C)/C=C/C=C/C=C/C=C/C=C/C=C/C=C/[C@H](O[C@@H]2O[C@H](C)[C@@H](O)[C@H](N)[C@@H]2O)C[C@@H]2O[C@](O)(C[C@@H](O)C[C@@H](O)[C@H](O)CC[C@@H](O)C[C@@H](O)CC(=O)O[C@H]1C)C[C@H](O)[C@H]2C(=O)O [amphotericin B, Amphotericin B]
- MFC C. albicans 10231 [7]: 0.5 µg/mL (≈ 0.541 µM)
- MFC C. albicans 90028 [7]: 0.5 µg/mL (≈ 0.541 µM)
- MIC C. albicans 10231 [7]: 0.5 µg/mL (≈ 0.541 µM)
- MIC C. albicans 90028 [7]: 0.5 µg/mL (≈ 0.541 µM)
- MFC C. glabrata [8]: 1 µg/mL (≈ 1.08 µM)
- MIC C. glabrata [8]: 1 µg/mL (≈ 1.08 µM)

Compound: CC(C)(C)c1[nH]cnc1/C=c1\[nH]c(=O)/c(=C/c2ccccc2)[nH]c1=O [compound 2421]
- EC50 ([5]; HT-29, read-out: EC50 (M) Mean, Table 3.1, cell line not given, assay as above): 2.22e-08 M
- % cytotox Mean ([5]; Table 3.1, cell line not given): 88%

Compound: CC(C)(C)c1ocnc1/C=c1\[nH]c(=O)/c(=C/c2ccccc2F)[nH]c1=O [compound 2475, tBu-Oxadelta-PLH-2-F]
- EC50 ([5]; Table 3.2, HT-29 cells, 48 hours, read-out: EC50 (M) Mean): 4.66e-08 M

Compound: COc1cccc2c1C(=O)c1c(O)c3c(c(O)c1C2=O)C[C@@](O)(C(=O)CO)C[C@@H]3O[C@H]1C[C@H](N)[C@H](O)[C@H](C)O1 [doxorubicin, Doxorubicin]
- reduced susceptibility of MES-SA/DX5 cell line ([6]; versus MES-SA): 34 fold

Compound: COc1cc([C@@H]2c3cc4c(cc3[C@@H](O[C@@H]3O[C@@H]5CO[C@@H](C)O[C@H]5[C@H](O)[C@H]3O)[C@H]3COC(=O)[C@H]23)OCO4)cc(OC)c1O [etoposide, Etoposide]
- reduced susceptibility of MES-SA/DX5 cell line ([6]; versus MES-SA): 60 fold

Compound: CC(C)(C)c1[nH]cnc1/C=C1\NC(=O)[C@H](Cc2ccccc2)NC1=O [t-butyl-phenylahistin]
- potency in resistant MES-SA/DX5 versus sensitive MES-SA line [6]: only slightly reduced
- effect on estimated tumor growth with taxotere [9]: significant potentiation of taxotere
- antifungal potency compared with griseofulvin [1]: equivalent in potency or in some cases more potent than griseofulvin
- microtubule depolymerization in HuVEC cells [4]: induced microtubule depolymerization

Compound: CC(C)(C)c1[nH]cnc1/C=c1\[nH]c(=O)/c(=C/c2ccccc2)[nH]c1=O [tBu-dehydrophenylahistin, 3-Z-Benzylidene-6-(5″-tert-butyl-1H-imidazol-4″-Z-ylmethylene)-piperazine-2,5-dione]
- cytotoxic activity in comparison with dehydrophenylahistin ([5]; Table 1 data): ~4 times

- metabolites detected [10]: at least seven metabolites were detected
- share of major metabolites P1 and P3 in recovered metabolites [10]: more than 60%
Compound: (±)-phenylahistin

Compound: phenylahistin [halimide]
- DNA laddering, potency compared with KPU-2 [11]: much less potent
